Assay results as given in paper PMC11793105, “A kalihinol analog disrupts apicoplast function and vesicular trafficking in P. falciparum malaria” (Science (New York, N.Y.), 2024).
Like-named read-outs stand apart in the source and are kept apart here.

Columns and labels:
[1] = system: P. falciparum Dd2 (MRA-156); experiment: SYBR Green I growth inhibition assay, Dd2; format: cell-based; conditions: Plasmodium falciparum
Method: Fig. 1. […] (B) SYBR Green–based dose response assays were conducted on early-ring stage parasites (6 hours after invasion). […] 3D7 WT (blue), NF54 (green), drug-resistant strains Dd2 (red), HB3 (black), W2 (gray), and D10-ACP-GFP (purple) lines (Sigmoidal, 4PL, X is concentration, n ≥ 3, nonlinear regression, CI: 95%). (C) Schematic diagram of the development of P. falciparum after two consecutive erythrocytic cycles. The time points at which MED6-189 was introduced are depicted in green. HPS, hours post synchronization. […] The images depict various developmental stages of the parasite’s intraerythrocytic life cycle. Bordered images represent time points when drug was first introduced (n = 3 biological replicates, P < 0.05).
Detailed information on materials and methods is available in the supplementary materials. […] P. knowlesi assays were quantitatively measured by flow cytometry using SYBR Green I and Mitrotracker Deep Red, as previously described ([84], [85]), on a Beckman Coulter CytoFLEX. […]
P. falciparum in vitro SYBR green fluorescence-based assays The anti-malarial activity of individual analogues were evaluated in-vitro against P. falciparum 3D7 (MRA-102, drug […]
green-I based fluorescence assay. Parasite growth rate and stages of development were determined via microscopy through Giemsa-stained smears of the cultures. […]

P. falciparum = experiment: Drug-drug interaction (fractional inhibitory concentration, isobologram) assay; format: cell-based, Plasmodium falciparum
Excerpt: Fig. 2. […] Nuclei are stained with 4’,6-diamidino-2-phenylindole (DAPI; blue). […] (B) Dose-dependent interactions between MED6-189 (blue) and various antimalarials with known mechanisms of action (red). […] The regression line represents a nonlinear regression (variable slope with four parameters), with significant differences considered if P < 0.05. […] Isobologram curves are expected to be parallel to the diagonal for additive drug pairs, concave for synergistic drug pairs, and convex for antagonistic drug pairs. […] The analysis was performed using a two-way ANOVA, n = 3, with P < 0.05 significance.

[2] = system: S. cerevisiae strains with overexpressed or repressed Sec13p; format: cell-based, Saccharomyces cerevisiae; conditions: Tet-off promoter, doxycycline, vs WT yeast
Excerpt: Fig. 4. […] (C) Schematic representation of the CRISPR-Cas9–based replacement strategy used to introduce a deletion of the targeted repeat regions in the PfSec13 gene. The insertion was achieved through overlap extension polymerase chain reaction (PCR) of fragments directly upstream and downstream of the target segment and subsequently formed by primer overlap extension PCR to replicate the desired deletion. […] (D) Predicted structure of the SEC13 protein highlighting the seven amino acid tandem repeat regions targeted for deletion (red). […] Data were analyzed using a Sigmoidal, 4PL (X represents concentration, n = 3, nonlinear regression, CI: 95%).
PCR amplification and introduced into an episomal E. coli/yeast shuttle vector, pRS425, by using an in-fusion cloning kit (Takara Bio USA, Inc) and the resulting pRS425-SEC13 plasmid was transformed into the BY4741 yeast strain. To swiftly repress the SEC13 gene, we utilized the tet-off system. This involved substituting the native SEC13 gene promoter with a tetracycline (tet)- regulatable counterpart, while leaving the original SEC13 open reading frame intact. The yeast

Compound: [C-]#[N+][C@]1(C)CC[C@H]2[C@@H]([C@@H](C(C)C)CC[C@]2(C)[N+]#[C-])[C@H]1O [MED6-189]
- IC50 ([1]; DD2, 72 h): 0.047 ± 0.007 µM
- IC50 ([1]; DD2, read-out: IC50 (µM) P. falciparum (Dd2)): 0.017 µM
- FIC score (P. falciparum; MED6-189 in combination with atovaquone (additive)): 0.91 ± 0.2
- FIC score (P. falciparum; MED6-189 in combination with chloroquine (additive)): 1.71 ± 0.4
- increase in susceptibility on Sec13p repression [2]: ~ 5.5 fold
